The record followed here is article PMC7034945 (RSC Advances, 2019).

Like-named read-outs stand apart in the source and are kept apart here.

One series concerns HIV-1 NL4-3 virus. The experiment in a line: Anti-HIV-1 activity, multicycle assay with HIV-1 NL4-3 in TZM-bl cells. The series is classed as cell-based. Conditions: for anti-HIV-1 activity (in words) / SI (selectivity index, ratio of CC50/EC50): TZM-bl cells; for anti-HIV-1 activity (in words): at the test concentration.
The next series relates to TZM-bl cells. Conditions: uninfected TZM-bl cells, NA = no cytotoxicity at the test concentration.
The conditions of series [1]: measured by HPLC.
A further series is described as follows: in vitro. Conditions: human.
For another series, the target named is HIV-1 CA monomer (Human immunodeficiency virus type 1 group M subtype B, UniProt P12493). The experiment in a line: biochemical. The series is classed as binding, HIV-1 NL4-3.
Where [2] appears, read: Table 1, HIV-1 NL4-3, TZM-bl cells, NA = no anti-HIV-1 activity at the test concentration.
[3] abbreviates: Table 2, HIV-1 NL4-3, TZM-bl cells, NA = no anti-HIV-1 activity at the test concentration.
The mark [4] stands for this setting: Caco-2, pH 7.4, Mean Papp A to B, Caco-2, 2 μM, 2 hours, pH 7.40.
Setting [5] is: Caco-2, pH 7.4, Rank Papp, Caco-2, A to B, permeability class.
[6] abbreviates: Caco-2, pH 7.4, apparent permeability (Papp), Caco-2 cells.
Setting [7] is: Human immunodeficiency virus 1, NL43, TZM-bl.

“Methyl (S)-4-(4-((3-(3,5-difluorophenyl)-1-((4-methoxyphenyl)(methyl)amino)-1-oxopropan-2-yl)carbamoyl)-1H-1,2,3-triazol-1-yl)benzoate [I-8p]” gave an EC50 in the series on HIV-1 NL4-3 virus (setting [2]) of 14.2 ± 3.46 µM. For the same molecule, the CC50 in the series with TZM-bl cells (Table 1) was > 18.2 µM.

Consider “(S)-N-(1-((4-Methoxyphenyl)(methyl)amino)-1-oxo-3-phenylpropan-2-yl)-3-(1-(3-(thiophen-3-yl)propyl)-1H-1,2,3-triazol-4-yl)benzamide [III-15h]”, for which, in the series on HIV-1 NL4-3 virus, the “anti-HIV-1 activity (in words)” value is on record as “exhibited anti-HIV-1 activity at the test concentration”. The same molecule had an EC50 in the series on HIV-1 NL4-3 virus (setting [3]) of 9.37 ± 3.18 µM. Further, in the series with TZM-bl cells (Table 2), the CC50 is > 35.4 µM. In addition, in series [1], the “log P” value stood at 2.36.

With `CC(C)(C)NCC(O)COc1cccc2c1CC(O)C(O)C2` (centres unmarked) [Nadolol], the Papp A→B is 0.08 ×10⁻⁶ cm/s in “in vitro” (setting [4]), < 0.5 ×10⁻⁶ cm/s in “in vitro” (setting [5]) and 0.08 ×10⁻⁶ cm/s in the series “in vitro” (setting [6]).

For “3-(1-(2-(Hydroxymethyl)-5-(5-methyl-2,6-dioxo-1,2,3,6-tetrahydropyridin-3-yl)tetrahydrofuran-3-yl)-1H-1,2,3-triazol-4-yl)-N-((S)-1-((4-methoxyphenyl)(methyl)amino)-1-oxo-3-phenylpropan-2-yl)benzamide [III-15o]”, the EC50 with HIV-1 NL4-3 virus (setting [3]) was > 29.4 µM. Also, the CC50 in the series on TZM-bl cells (Table 2) is > 29.4 µM.

For “(S)-N-(3-(3,5-Difluorophenyl)-1-((4-methoxyphenyl)(methyl)amino)-1-oxopropan-2-yl)-3-(1-(quinolin-2-yl)-1H-1,2,3-triazol-4-yl)benzamide [II-10i]”, in the series on HIV-1 NL4-3 virus, the “anti-HIV-1 activity (in words)” value is listed as “exhibited anti-HIV-1 activity at the test concentration”. Further, a half-maximal effect in the series on HIV-1 NL4-3 virus (setting [3]) (EC50) was put at 21.5 ± 4.53 µM. Besides, the CC50 in the series on TZM-bl cells (Table 2) was > 32.3 µM.

In turn, `COc1ccc(N(C)C(=O)[C@H](Cc2cc(F)cc(F)c2)NC(=O)c2cccc(-c3cn(Cc4ccc([N+](=O)[O-])cc4)nn3)c2)cc1` [II-10c, (S)-N-(3-(3,5-Difluorophenyl)-1-((4-methoxyphenyl)(methyl)amino)-1-oxopropan-2-yl)-3-(1-(4-nitrobenzyl)-1H-1,2,3-triazol-4-yl)benzamide] returned an EC50 in the series with HIV-1 NL4-3 virus (setting [7]) of 2.13 ± 0.75 µM. Further, the “anti-HIV-1 activity (in words)” value in the series with HIV-1 NL4-3 virus is given as “exhibited anti-HIV-1 activity at the test concentration”. Moreover, in the series on HIV-1 NL4-3 virus (Table 2), the “SI (selectivity index, ratio of CC50/EC50)” value is given as >16.66. On HIV-1 CA monomer, this molecule registered a Kd of 2.2 ± 0.23 µM. Further, the values for the Papp A→B in the series “in vitro” (setting [4]), in “in vitro” (setting [5]) and in “in vitro” (setting [6]) were < 0.01 ×10⁻⁶ cm/s, < 0.5 ×10⁻⁶ cm/s and < 0.01 ×10⁻⁶ cm/s, respectively.

With “N-((S)-3-(3,5-Difluorophenyl)-1-((4-methoxyphenyl)(methyl)amino)-1-oxopropan-2-yl)-1-(2-(hydroxymethyl)-5-(5-methyl-2,6-dioxo-1,2,3,6-tetrahydropyridin-3-yl)tetrahydrofuran-3-yl)-1H-1,2,3-triazole-4-carboxamide [I-8u]”, the “anti-HIV-1 activity (in words)” value with HIV-1 NL4-3 virus is listed as “lost its anti-HIV-1 activity”. For the same molecule, the EC50 in the series on HIV-1 NL4-3 virus (setting [2]) was > 15.6 µM. The CC50 with TZM-bl cells (Table 1) was > 15.6 µM.

For “Ethyl (S)-2-(4-(3-((1-((4-methoxyphenyl)(methyl)amino)-1-oxo-3-phenylpropan-2-yl)carbamoyl)phenyl)-1H-1,2,3-triazol-1-yl)acetate [III-15n]”, the “anti-HIV-1 activity (in words)” value with HIV-1 NL4-3 virus was “lost anti-HIV-1 activity completely”. In addition, the EC50 with HIV-1 NL4-3 virus (setting [3]) is > 36 µM. Further, the CC50 in the series on TZM-bl cells (Table 2) is > 36 µM.

As to “N-((S)-3-(3,5-Difluorophenyl)-1-((4-methoxyphenyl)(methyl)amino)-1-oxopropan-2-yl)-3-(1-(2-(hydroxymethyl)-5-(5-methyl-2,6-dioxo-1,2,3,6-tetrahydropyridin-3-yl)tetrahydrofuran-3-yl)-1H-1,2,3-triazol-4-yl)benzamide [II-10o]”, the EC50 in the series with HIV-1 NL4-3 virus (setting [3]) is > 27.9 µM. For the same molecule, in the series with TZM-bl cells (Table 2), the CC50 is > 27.9 µM.

In the case of `COc1ccc(N(C)C(=O)[C@H](Cc2cc(F)cc(F)c2)NC(=O)c2cn(Cc3ccc([N+](=O)[O-])cc3)nn2)cc1` [I-8l, (S)-N-(3-(3,5-Difluorophenyl)-1-((4-methoxyphenyl)(methyl)amino)-1-oxopropan-2-yl)-1-(4-nitrobenzyl)-1H-1,2,3-triazole-4-carboxamide], the EC50 in the series on HIV-1 NL4-3 virus (setting [7]) was determined as 9.26 ± 2.54 µM. For the same molecule, the “SI (selectivity index, ratio of CC50/EC50)” value in the series on HIV-1 NL4-3 virus (Table 1) was >1.96.

Take `COc1ccc(N(C)C(=O)[C@H](Cc2cc(F)cc(F)c2)NC(=O)c2cccc(-c3cn(Cc4ccc(C(N)=O)cc4)nn3)c2)cc1` [II-10d, (S)-3-(1-(4-Carbamoylbenzyl)-1H-1,2,3-triazol-4-yl)-N-(3-(3,5-difluorophenyl)-1-((4-methoxyphenyl)(methyl)amino)-1-oxopropan-2-yl)benzamide]: the EC50 in the series with HIV-1 NL4-3 virus (setting [7]) worked out at 23.4 ± 6.88 µM. The “anti-HIV-1 activity (in words)” value with HIV-1 NL4-3 virus is “exhibited anti-HIV-1 activity at the test concentration”. Besides, the “SI (selectivity index, ratio of CC50/EC50)” value in the series on HIV-1 NL4-3 virus (Table 2) is on record as >1.37.

Take `COc1ccc(N(C)C(=O)[C@H](Cc2cc(F)cc(F)c2)NC(=O)c2cn(Cc3ccc4ccccc4c3)nn2)cc1` [I-8n, (S)-N-(3-(3,5-Difluorophenyl)-1-((4-methoxyphenyl)(methyl)amino)-1-oxopropan-2-yl)-1-(naphthalen-2-ylmethyl)-1H-1,2,3-triazole-4-carboxamide]: in the series with HIV-1 NL4-3 virus (setting [7]), the EC50 was found to be 14.6 ± 2.34 µM. Also, the “SI (selectivity index, ratio of CC50/EC50)” value in the series on HIV-1 NL4-3 virus (Table 1) was >1.23.

Take “(S)-N-(1-((4-Methoxyphenyl)(methyl)amino)-1-oxo-3-phenylpropan-2-yl)-3-(1-(quinolin-2-yl)-1H-1,2,3-triazol-4-yl)benzamide [III-15i]”: the concentration for a half-maximal effect (EC50) in the series with HIV-1 NL4-3 virus (setting [3]) was > 34.3 µM. Further, the CC50 with TZM-bl cells (Table 2) was > 34.3 µM.

With `COc1ccc(N(C)C(=O)[C@H](Cc2cc(F)cc(F)c2)NC(=O)c2cccc(-c3cn(Cc4cccc5ccccc45)nn3)c2)cc1` [II-10k, (S)-N-(3-(3,5-Difluorophenyl)-1-((4-methoxyphenyl)(methyl)amino)-1-oxopropan-2-yl)-3-(1-(naphthalen-1-ylmethyl)-1H-1,2,3-triazol-4-yl)benzamide], the EC50 in the series with HIV-1 NL4-3 virus (setting [7]) is > 31.7 µM.

For `COc1ccc(N(C)C(=O)[C@H](Cc2cc(F)cc(F)c2)NC(=O)c2cn(Cc3ccccc3[N+](=O)[O-])nn2)cc1` [I-8j, (S)-N-(3-(3,5-Difluorophenyl)-1-((4-methoxyphenyl)(methyl)amino)-1-oxopropan-2-yl)-1-(2-nitrobenzyl)-1H-1,2,3-triazole-4-carboxamide], the EC50 in the series with HIV-1 NL4-3 virus (setting [7]) stood at 3.27 ± 0.78 µM. In the series on HIV-1 NL4-3 virus (Table 1), the “SI (selectivity index, ratio of CC50/EC50)” value was >5.55.

Turning to `COCCc1ccc(OCC(O)CNC(C)C)cc1` (centres unmarked) [Metoprolol], the Papp A→B in the series “in vitro” (setting [4]) is 16.4 ×10⁻⁶ cm/s; in the series “in vitro” (setting [5]), > 2.5 ×10⁻⁶ cm/s; in “in vitro” (setting [6]) it was 16.4 ×10⁻⁶ cm/s.

`COc1ccc(N(C)C(=O)[C@H](Cc2cc(F)cc(F)c2)NC(=O)c2cn(Cc3cccc([N+](=O)[O-])c3)nn2)cc1` [I-8k, (S)-N-(3-(3,5-Difluorophenyl)-1-((4-methoxyphenyl)(methyl)amino)-1-oxopropan-2-yl)-1-(3-nitrobenzyl)-1H-1,2,3-triazole-4-carboxamide] registered an EC50 in the series on HIV-1 NL4-3 virus (setting [7]) of 10 ± 1.76 µM.

In the case of `COc1ccc(N(C)C(=O)[C@H](Cc2cc(F)cc(F)c2)NC(=O)c2cn(Cc3cccc(C)c3)nn2)cc1` [I-8b, (S)-N-(3-(3,5-Difluorophenyl)-1-((4-methoxyphenyl)(methyl)amino)-1-oxopropan-2-yl)-1-(3-methylbenzyl)-1H-1,2,3-triazole-4-carboxamide], the EC50 with HIV-1 NL4-3 virus (setting [7]) was found to be 9.43 ± 2.31 µM. Further, in the series with HIV-1 NL4-3 virus (Table 1), the “SI (selectivity index, ratio of CC50/EC50)” value was >2.04.

In general, EC50 refers to the midpoint of the concentration-response curve. Higher therefore signals weaker potency. For orientation: CC50 means the concentration giving 50% cytotoxicity. A lower CC50 goes with greater toxicity to the cells. By log P is commonly meant a log measure of how a compound divides between an organic and an aqueous phase. A lower log P goes with a more hydrophilic compound. As a reminder, the Papp A→B is the apparent permeability from the apical to the basolateral side of a cell layer. One may read the Kd as a measure of binding affinity in units of concentration.
